# Test results: patent US11214556B1, “Method of treating colorectal cancer” (King Abdulaziz University, priority 2019, dated 2022)
# Columns and labels:
# Assay type in all cases: cell-based, human
# HCT-116 cells [1] = experiment: Nuclear fragmentation by DAPI staining; conditions: 2.85 μM (IC50), 48 h compared to 24 h
# Protocol: Several assays were performed to determine the apoptotic effect of the early lead MOS-1512 as well as the potent derivative MOS-4112 on HCT-116 cells. […] See Drutovic, D.; Chripkova, M.; Pilatova, M.; Kruzliak, P.; Perjesi, P.; Sarissky, M.; Lupi, M.; Damia, G.; Broggini, M.; Mojzis, J., Benzylidenetetralones, cyclic chalcone analogues, induce cell cycle arrest and apoptosis in HCT116 colorectal cancer cells. Tumour Biol 2014, 35 (10), 9967-75, incorporated herein by reference in its entirety.
# Cells were cultured on sterile 22 mm^2 cover slips (Harvard Apparatus, MA, USA) in sterile six well plates at a density of 2×10^5 cells/well. […] The fixed and permeabilized cells nuclei were denatured with 2 N HCl (300 μl) for 10 min, washed three times more, and treated with 0.1 μg/ml 4′,6′-diamidino-2-phenylindole, dihydrochloride (DAPI) (Sigma-Aldrich, St. Louis, Mo., USA) (1:1000) in (phosphate-buffered saline-Tween 20 (PBST) for 1 hr. After staining, the cells were washed twice with PBS. The cover slips were then mounted on a glass slide with anti-fade mounting medium and viewed with an epifluorescence microscope, Leica, DM 5500 B (Leica, Buffalo Grove, Ill., USA) at a magnification of 60×, and data were captured digitally and quantified using the microscope provided software.
# HCT-116 cells [2] = experiment: SRB cytotoxicity assay, HCT-116; conditions: SRB assay, 72 h exposure; ± SEM
# How it was run: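 Cells in RPMI1640/10% FBS were seeded at 5000 per well and grown 24 h. They were then exposed to 0.01–100 μM compound, or 1% DMSO, for 72 h at 37 °C. After TCA fixation and SRB staining, OD was read at 510 nm and viability expressed relative to untreated controls.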
# HCT-116 cells [3] = experiment: ROS accumulation by DCFDA staining; conditions: 24 and 48 h, compared to untreated cells
# Protocol: The elevation of oxidative stress inside cancer cells, consequent to treatment with 4112, was investigated via monitoring ROS release over time (24 and 48 h). In this test, the 2′,7′-dichlorofluorescin diacetate (DCFDA) dye was used to detect various ROS species and emit green fluorescence.
# To determine the effect of the newly synthesized compounds on the cellular redox status, two different free radical sensitive probe dichlorofluorescin diacetate (DCFDA) was used. Cells were cultured on sterile 22 mm^2 cover slips (Harvard Apparatus, MA, USA) in sterile six well plates at a density of 2×10^5 cells/well. […] At the end of the exposure, cells attached to cover slips were washed thrice with PBS and incubated with DCFDA 10 μM for 30 min at 37° C. in the dark. Thereafter, cells were washed thrice with PBS and the cover slips were then mounted on a glass slide with anti-fade mounting medium containing 4′,6′-diamidino-2-phenylindole, dihydrochloride (DAPI) (Sigma-Aldrich, St. Louis, Mo., USA), which was used as counter stain and viewed with an epifluorescence microscope, Leica, DM 5500 B (Leica, Buffalo Grove, Ill., USA) at a magnification of 60×. Data were captured digitally and quantified using the microscope provided software.
# HCT-116 cells [4] = experiment: Annexin V/propidium iodide apoptotic cell determination; conditions: IC50 concentration
# Protocol: Apoptosis was determined by staining cells with Annexin V-fluorescein isothiocyanate (FITC) and counterstaining with propidium iodide (PI) using the Annexin V-FITC/PI apoptosis detection kit (BD Biosciences, San Diego, Calif., USA) according to the manufacturer's instructions. Briefly, 4×10^6 cell/T 75 flask were exposed to the IC50 of tested compound for 24 and 48 h. The cells were collected by trypsinization and 0.5×10^6 cells were washed twice with phosphate-buffered saline (PBS) and stained with 5 μl Annexin V-FITC and 5 μl PI in 1× binding buffer (BD Biosciences, San Jose, Calif., USA) for 15 min at room temperature in the dark. Analyses were performed using FACS Calibur flow cytometer (BD Biosciences, San Jose, Calif., USA).
compound,measurement,setting,value
"CCCNC(=O)/C(=C/c1c[nH]c2ccccc12)NC(=O)/C=C/c1cccs1 [Compound 4112, (Z)-3-(1H-indol-3-yl)-N-propyl-2-[(E)-3-(thien-2-yl)acrylamidolacry]amide]",percentage of cells with fragmented DNA and condensed nuclei,HCT-116 cells [1],greatly increased
same,IC50,HCT-116 cells [2],2.85 ± 1.5 µM
same,accumulation of ROS,HCT-116 cells [3],causes accumulation of ROS
same,cell population in early apoptosis,HCT-116 cells [4]; after 48 hours,17.5%
same,cell population in late apoptosis,HCT-116 cells [4]; after 48 hours,4.1%
same,viable cells,HCT-116 cells [4]; after 48 hours,72%
same,change in cell viability,HCT-116 cells [4]; at 24 hours,very little change in cell viability
